Data as given in the supplement of paper PMC10307832.

How the values were obtained:
Test in all cases: relative viability (nuclei count vs DMSO), 5 days (fraction); higher = more cells survive
BGJ398 + Palbociclib = compound: CCN1CCN(c2ccc(Nc3cc(N(C)C(=O)Nc4c(Cl)c(OC)cc(OC)c4Cl)ncn3)cc2)CC1 [BGJ398] + CC(=O)c1c(C)c2cnc(Nc3ccc(N4CCNCC4)cn3)nc2n(C2CCCC2)c1=O [Palbociclib] (partner 0.5 µM)
How it was run: (§1)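 Nuclei were stained with Hoechst during a one-step fixation (final 0.05% Triton X-100, 1% formaldehyde, 1 ug/ml Hoechst) carried out 5 days after dosing, then counted on 4× images. The cells, lung cancer lines in 1536-well plates, had been dosed by pin tool the day after seeding with one drug alone or a fixed anchor-drug dose plus five library-drug doses (not always all listed) in √10 steps. Relative viability is the nuclei count in treated wells divided by that in vehicle wells, and each value is the median of duplicate plates.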

BGJ398 + AZD7762 = compound: CCN1CCN(c2ccc(Nc3cc(N(C)C(=O)Nc4c(Cl)c(OC)cc(OC)c4Cl)ncn3)cc2)CC1 [BGJ398] + NC(=O)Nc1cc(-c2cccc(F)c2)sc1C(=O)N[C@H]1CCCNC1 [AZD7762] (partner 0.2 µM)
How it was run: as §1

[1] = compound: C1=CC2=NC=CN=C2C=C1/C=C/3\C(=O)NC(=O)S3 + Cc1nc(NC(=O)N2CCC[C@H]2C(N)=O)sc1-c1ccnc(C(C)(C)C(F)(F)F)c1 [Alpelisib] (partner 2 µM)
How it was run: as §1

BGJ398 + Bortezomib = compound: CCN1CCN(c2ccc(Nc3cc(N(C)C(=O)Nc4c(Cl)c(OC)cc(OC)c4Cl)ncn3)cc2)CC1 [BGJ398] + CC(C)C[C@H](NC(=O)[C@H](Cc1ccccc1)NC(=O)c1cnccn1)B(O)O [Bortezomib] (partner 0.002 µM)
How it was run: as §1

| Cell Line | relative viability (BGJ398 + Palbociclib; first compound 0.01 µM) | relative viability (BGJ398 + Palbociclib; first compound 0.03162 µM) | relative viability (BGJ398 + Palbociclib; first compound 0.1 µM) | relative viability (BGJ398 + Palbociclib; first compound 0.3162 µM) | relative viability (BGJ398 + Palbociclib; first compound 1 µM) | relative viability (BGJ398 + AZD7762; first compound 0.01 µM) | relative viability (BGJ398 + AZD7762; first compound 0.03162 µM) | relative viability (BGJ398 + AZD7762; first compound 0.1 µM) | relative viability (BGJ398 + AZD7762; first compound 0.3162 µM) | relative viability (BGJ398 + AZD7762; first compound 1 µM) | relative viability ([1]; first compound 0.02 µM) | relative viability ([1]; first compound 0.06325 µM) | relative viability ([1]; first compound 0.2 µM) | relative viability ([1]; first compound 0.6325 µM) | relative viability ([1]; first compound 2 µM) | relative viability (BGJ398 + Bortezomib; first compound 0.01 µM) | relative viability (BGJ398 + Bortezomib; first compound 0.03162 µM) | relative viability (BGJ398 + Bortezomib; first compound 0.1 µM) | relative viability (BGJ398 + Bortezomib; first compound 0.3162 µM) | relative viability (BGJ398 + Bortezomib; first compound 1 µM) |
| --- | --- | --- | --- | --- | --- | --- | --- | --- | --- | --- | --- | --- | --- | --- | --- | --- | --- | --- | --- | --- |
| NCI-H522 | 1.13 | 1.07 | 1.06 | 0.932 | 0.859 | 0.864 | 0.686 | 0.812 | 0.836 | 0.853 |  |  |  |  |  |  |  |  |  |  |
| HCC-15 | 0.713 | 0.743 | 0.79 | 0.769 | 0.753 | 1.15 | 1.06 | 1.24 | 1.17 | 1.39 | 0.813 | 0.923 | 0.884 | 0.849 | 0.839 | 1.01 | 0.997 | 1.04 | 1.08 | 1.06 |
| A-427 | 0.524 | 0.488 | 0.49 | 0.435 | 0.393 | 0.688 | 0.685 | 0.599 | 0.43 | 0.565 | 1.06 | 1.08 | 1.1 | 1.07 | 1.12 | 0.984 | 0.991 | 1.12 | 0.774 | 0.743 |
| NCI-H2228 | 0.645 | 0.885 | 0.922 | 0.638 | 0.738 |  |  |  |  |  | 0.814 | 1.12 | 0.802 | 0.674 | 0.664 | 1.34 | 1.08 | 0.782 | 0.942 | 0.925 |
| NCI-H1734 | 0.329 | 0.352 | 0.355 | 0.359 | 0.355 | 0.504 | 0.56 | 0.538 | 0.554 | 0.624 | 0.707 |  | 0.741 | 0.622 | 0.54 | 0.95 | 0.889 | 0.933 | 0.805 | 0.825 |
| PC-14 | 0.505 | 0.524 | 0.664 |  | 0.513 | 0.403 |  | 0.387 | 0.176 | 0.249 | 0.959 | 0.973 | 0.932 | 0.894 | 0.863 | 0.952 | 0.85 | 0.791 | 0.868 | 0.878 |
| NCI-H1915 | 0.525 | 0.533 | 0.532 | 0.529 | 0.556 | 0.696 | 0.665 | 0.691 | 0.576 | 0.724 | 1.02 | 1.17 | 1.03 | 1.04 | 1.06 | 0.952 | 0.972 | 0.969 | 0.977 | 0.864 |
| NCI-H1666 | 0.659 | 0.631 | 0.666 | 0.641 | 0.638 | 0.95 | 0.784 | 0.866 | 0.703 | 0.728 | 0.918 | 1.14 | 0.863 | 0.94 | 0.851 | 0.88 | 0.774 | 0.793 | 0.816 | 0.629 |
| HCC-366 | 0.435 | 0.415 | 0.422 | 0.388 | 0.476 | 0.235 | 0.301 | 0.281 | 0.276 | 0.252 | 0.391 | 0.488 | 0.432 | 0.361 | 0.259 | 1.07 | 1.1 | 1.15 | 1.09 | 0.991 |
| SK-MES-1 | 0.324 | 0.328 | 0.303 | 0.331 | 0.308 |  |  |  |  |  |  | 0.987 | 0.86 | 0.868 | 0.802 |  |  |  |  |  |
| SW 1573 | 0.399 | 0.419 | 0.402 | 0.423 | 0.404 |  |  |  |  |  | 0.54 | 0.852 | 0.791 | 0.636 | 0.616 | 0.948 | 1.05 | 0.909 | 0.964 | 0.91 |
| NCI-H661 | 0.422 | 0.406 | 0.384 | 0.4 | 0.398 |  |  |  |  |  | 0.651 | 0.614 | 0.952 | 0.732 | 0.469 | 0.7 | 0.905 | 0.799 | 0.767 | 1 |
| PC-3 [JPC-3] | 0.591 |  | 0.522 |  | 0.569 | 0.853 |  | 0.781 |  | 0.837 | 1.07 | 1.12 | 0.994 | 0.987 | 1.03 | 0.851 |  | 0.914 | 0.804 | 0.765 |
| Calu-6 |  |  |  |  |  |  |  |  |  |  | 1.02 | 1.11 | 1.04 | 0.902 | 0.845 | 0.923 | 0.963 | 1.01 | 1.07 | 0.982 |
| LC-2-ad | 0.477 | 0.516 | 0.5 | 0.524 | 0.499 | 0.886 | 0.802 | 0.852 | 0.893 | 0.957 | 0.785 | 0.975 | 0.832 | 0.812 | 0.686 | 0.968 | 1.12 | 1.07 | 1.01 | 1.09 |
| CAL-12T | 0.44 | 0.504 | 0.516 | 0.49 | 0.352 | 0.656 | 0.664 | 0.698 | 0.636 | 0.625 | 1.3 | 1.11 | 1.11 | 1.3 | 1.15 | 0.954 | 0.852 | 0.996 | 0.943 | 0.837 |
| RERF-LC-KJ | 1.13 | 0.781 | 1.17 | 1.11 | 1.23 | 0.858 | 1 | 0.987 | 0.819 | 0.295 | 0.633 | 0.816 | 0.832 | 0.786 | 0.788 | 1.06 | 1.17 | 1.2 | 1.31 | 1.18 |
| NCI-H1650 | 0.298 | 0.375 | 0.28 | 0.182 | 0.249 |  |  |  |  |  |  |  |  |  |  | 0.22 | 0.203 | 0.184 | 0.174 | 0.19 |
| BEN | 0.522 | 0.457 | 0.43 | 0.481 | 0.401 | 0.729 | 0.648 | 0.687 | 0.583 | 0.578 | 1.07 | 0.877 | 1.22 | 0.911 | 1.09 | 0.719 | 0.976 | 0.715 | 0.656 | 0.619 |
